Test results taken from US5190940A, “Cholesterol ester hydrolase inhibitors” (American Home Products Corporation, priority 1991, dated 1993).
Like-named read-outs stand apart in the source and are kept apart here.

How the values were obtained:
[1] = tested on: Absorption of ^14 C-Chol.; experiment: In vivo cholesterol absorption study in normal rats, serum radioactivity after oral [4-^14 C] cholesterol; settings: suspended in olive oil, normal rat, 6 hr
Experimental: The in vivo cholesterol absorption studies were conducted in normal rats by oral administration of the compound being tested suspended in olive oil followed by oral administration of [4-^14 C] cholesterol in propylene glycol, otherwise following the procedure of Cayen et al., J. Lipid Res. 20 162 (1979). The serum radioactivity was measured at six hours after dosing. The results of this study are reported in the following Table, where available, as percent decrease compared to control.

[2] = biological target: T1, cholesterol esterase (cholesterol ester hydrolase; CEH) (Bos taurus, UniProt P30122); experiment: Inhibition of cholesteryl ester formation by cholesterol esterase (CEH), in vitro; assay type: biochemical, bovine
T1 construct: purchased Sigma C-1892; host or cells: bovine pancreas
T1 sequence (P30122 19-597): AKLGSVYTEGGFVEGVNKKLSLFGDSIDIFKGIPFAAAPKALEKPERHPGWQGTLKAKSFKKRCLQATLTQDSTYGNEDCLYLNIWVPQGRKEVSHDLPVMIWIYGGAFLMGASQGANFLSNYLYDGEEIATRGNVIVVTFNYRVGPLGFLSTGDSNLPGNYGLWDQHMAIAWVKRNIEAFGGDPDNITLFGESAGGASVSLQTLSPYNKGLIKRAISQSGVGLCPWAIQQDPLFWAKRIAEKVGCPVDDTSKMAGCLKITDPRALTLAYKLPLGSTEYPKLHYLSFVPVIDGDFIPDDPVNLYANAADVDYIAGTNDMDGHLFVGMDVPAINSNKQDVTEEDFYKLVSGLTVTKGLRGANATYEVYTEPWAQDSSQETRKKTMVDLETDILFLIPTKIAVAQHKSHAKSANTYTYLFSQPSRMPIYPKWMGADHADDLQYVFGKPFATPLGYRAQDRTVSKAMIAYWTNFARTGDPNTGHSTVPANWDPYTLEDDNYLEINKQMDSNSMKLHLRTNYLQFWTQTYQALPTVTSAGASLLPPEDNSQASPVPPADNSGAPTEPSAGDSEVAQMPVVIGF
Experimental: The ability of the compounds of this invention to inhibit the formation of cholesteryl esters and thereby interfere with and prevent assimilation of cholesterol into the lymphatic system and ultimately the blood stream was established by incubating the compounds at 37° C. with a mixture of cholesterol and oleic acid in the presence of buffered cholesterol esterase [([…]) Sigma No. C-1892, from bovine pancreas] and measuring the amount of ester formed, according to the procedure of Field, J. of Lipid Research, 25 389 (1984).

[3] = 37° C., cholesterol and oleic acid, buffered cholesterol esterase from bovine pancreas, read-out: IC50 Against CEH (concentration that inhibits one-half of the ester formation)

Row | IC50 [2, 3] | SMILES | Effects on Absorption of ^14 C-Chol., percent decrease compared to control ([1]; 100 mg/kg) | IC50 [2] | Effects on Absorption of ^14 C-Chol., percent decrease compared to control ([1]; 250 mg/kg)
1 | 1.2 µM | O=C(Oc1ccccc1-c1ccccc1)N1CCSCC1 [Example 11, 4-Thiomorpholinecarboxylic acid[1.1'-biphenyl]-2-yl ester] | 21% | – | –
2 | 38 µM | CC1(C)CCCN(C(=O)Oc2ccccc2-c2ccccc2)C1 [Example 6, 3,3-Dimethyl-1-piperidinecarboxylic acid[1,1'-biphenyl]-2-yl ester] | – | – | –
3 | 1.9 µM | O=C(Oc1ccccc1-c1ccccc1)N1CCC(c2ccccc2)CC1 [Example 9, 4-Phenyl-1-piperidinecarboxylic acid[1.1'-biphenyl]-2-yl ester] | 11% | – | –
4 | – | CCCCCCCCNC(=O)Oc1ccccc1-c1ccccc1 [Example 1, Octylcarbamic acid[1.1'-biphenyl]-2-yl ester] | – | 1.5 µM | –
5 | – | CN1CCN(C(=O)Oc2ccccc2-c2ccccc2)CC1 [Example 12, 4-Methyl-1-piperazinecarboxylic acid[1,1'-biphenyl]-2-yl ester] | – | 25 µM | –
6 | – | O=C(NCCCCc1ccccc1)Oc1ccccc1-c1ccccc1 [Example 5, (4-Phenylbutyl)carbamic acid[1,1'-biphenyl]-2-yl ester] | – | 0.25 µM | 46%
7 | – | O=C(NC1CCCCC1)Oc1ccccc1-c1ccccc1 [Example 3, Cyclohexylcarbamic acid[1,1'-biphenyl]-2-yl ester] | 21% | 5 µM | –
8 | – | O=C(NCC1CCCCC1)Oc1ccccc1-c1ccccc1 [Example 4, (Cyclohexylmethyl)carbamic acid[1,1'-biphenyl]-2-yl ester] | 21% | 3 µM | –
9 | 0.08 µM | O=C(Oc1ccccc1-c1ccccc1)N1CCCCC1 [Example 7, 1-Piperidinecarboxylic acid[1,1'-biphenyl]-2-yl ester] | – | – | 19%
10 | – | O=C(Oc1ccccc1-c1ccccc1)N1CCOCC1 [Example 10, 4-Morpholinecarboxylic acid[1.1'-biphenyl]-2-yl ester] | – | 26 µM | –
11 | 53 µM | O=C(Oc1ccccc1-c1ccccc1)N1CCN(c2ccccc2)CC1 [Example 13, 4-Phenyl-1-piperazinecarboxylic acid[1,1'-biphenyl]-2-yl ester] | – | – | –
12 | 0.8 µM | CC1CCN(C(=O)Oc2ccccc2-c2ccccc2)CC1 [Example 8, 4-Methyl-1-piperidinecarboxylic acid[1,1'-biphenyl]-2-yl ester] | – | – | –
13 | – | CCCCCCCN(Cc1ccc(CC(C)(C)C)cc1)C(=O)Oc1ccccc1-c1ccccc1 [Example 2, [[4-(2,2-Dimethylpropyl)phenyl]methyl]heptylcarbamic acid[1,1'-biphenyl]-2-yl ester] | – | 100 µM | –
